Results taken from ChEMBL document CHEMBL1201862, “PubChem BioAssay data set” (2004).
Calls of active or inactive are those of the source.

What was measured:
[1] = target: T1, Short transient receptor potential channel 4 (Mus musculus, UniProt Q9QUQ5); assay: block of DAMGO-driven TRPC4 calcium entry – cell-based, HEK293 TRPC4/mu-opioid, Fluo-4 calcium, dose response (AID 434942); assay type: functional;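 also: potency of inhibitors blocking the TRPC4 calcium response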
T1 sequence (Q9QUQ5 whole entry): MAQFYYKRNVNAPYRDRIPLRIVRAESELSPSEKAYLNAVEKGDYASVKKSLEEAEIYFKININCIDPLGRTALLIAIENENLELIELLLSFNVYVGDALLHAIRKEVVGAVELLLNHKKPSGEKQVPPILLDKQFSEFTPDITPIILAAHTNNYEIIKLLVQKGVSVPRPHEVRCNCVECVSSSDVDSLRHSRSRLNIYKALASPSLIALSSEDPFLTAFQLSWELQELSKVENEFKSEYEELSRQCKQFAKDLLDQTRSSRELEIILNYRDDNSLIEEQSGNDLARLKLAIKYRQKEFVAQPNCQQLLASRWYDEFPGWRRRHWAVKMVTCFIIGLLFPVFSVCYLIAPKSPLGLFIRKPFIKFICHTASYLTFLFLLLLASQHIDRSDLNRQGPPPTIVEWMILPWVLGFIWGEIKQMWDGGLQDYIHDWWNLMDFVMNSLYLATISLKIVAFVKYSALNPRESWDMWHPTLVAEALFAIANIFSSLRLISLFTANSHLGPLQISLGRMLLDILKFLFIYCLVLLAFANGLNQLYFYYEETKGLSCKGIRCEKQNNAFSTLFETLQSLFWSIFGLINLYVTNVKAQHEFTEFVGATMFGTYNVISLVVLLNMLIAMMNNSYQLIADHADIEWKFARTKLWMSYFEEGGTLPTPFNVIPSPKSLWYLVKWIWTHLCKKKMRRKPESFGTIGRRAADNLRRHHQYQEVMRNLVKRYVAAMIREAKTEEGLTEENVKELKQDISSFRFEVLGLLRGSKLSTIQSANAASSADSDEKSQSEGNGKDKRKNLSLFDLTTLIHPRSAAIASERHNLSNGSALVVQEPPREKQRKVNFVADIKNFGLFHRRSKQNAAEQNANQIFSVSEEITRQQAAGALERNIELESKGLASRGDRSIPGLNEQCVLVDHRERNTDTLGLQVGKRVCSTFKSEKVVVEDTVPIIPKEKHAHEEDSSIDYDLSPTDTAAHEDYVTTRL

[2] = target: Cytochrome P450 2D6 (Homo sapiens, UniProt P10635);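 also: CYP2D6 member of a cytochrome P450 panel assay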
[3] = target: Cytochrome P450 2C9 (Homo sapiens, UniProt P11712)
[4] = target: Cytochrome P450 3A4 (Homo sapiens, UniProt P08684);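 also: CYP3A4 tested as one member of a cytochrome P450 panel screen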
[5] = target: T2, Corticotropin-releasing factor receptor 2/Corticotropin-releasing factor-binding protein (Homo sapiens, UniProt P24387+Q13324); assay: activators of CRF receptor 2 with binding protein – uHTS hits, confirmation (AID 602473); assay type: functional; conditions: read-out: EC50_Mean
T2 sequence (Q13324 whole entry): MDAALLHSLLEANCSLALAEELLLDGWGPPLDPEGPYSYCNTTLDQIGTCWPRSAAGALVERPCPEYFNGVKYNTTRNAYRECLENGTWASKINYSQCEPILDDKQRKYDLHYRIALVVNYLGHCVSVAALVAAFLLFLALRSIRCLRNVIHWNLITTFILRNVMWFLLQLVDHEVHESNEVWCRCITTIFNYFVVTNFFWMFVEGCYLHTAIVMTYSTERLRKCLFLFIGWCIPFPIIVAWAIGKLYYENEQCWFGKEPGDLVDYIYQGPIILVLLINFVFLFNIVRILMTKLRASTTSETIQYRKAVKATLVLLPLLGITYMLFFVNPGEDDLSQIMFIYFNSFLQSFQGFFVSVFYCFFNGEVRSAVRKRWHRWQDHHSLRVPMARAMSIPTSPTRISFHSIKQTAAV
T2 sequence (P24387 whole entry): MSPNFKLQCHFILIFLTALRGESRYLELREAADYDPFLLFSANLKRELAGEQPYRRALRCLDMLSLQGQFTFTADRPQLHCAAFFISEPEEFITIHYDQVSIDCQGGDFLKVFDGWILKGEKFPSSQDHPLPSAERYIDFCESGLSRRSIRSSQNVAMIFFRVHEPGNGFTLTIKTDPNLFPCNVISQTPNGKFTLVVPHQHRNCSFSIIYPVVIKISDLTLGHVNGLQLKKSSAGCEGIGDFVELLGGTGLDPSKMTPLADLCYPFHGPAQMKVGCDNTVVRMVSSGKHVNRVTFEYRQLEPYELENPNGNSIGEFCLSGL

[6] = target: T2, Corticotropin-releasing factor receptor 2/Corticotropin-releasing factor-binding protein; assay: Dose Response confirmation of uHTS hits for small molecule antagonists of the CRF-binding protein and CRF-R2 receptor complex.; assay type: functional; conditions: read-out: IC50_Mean
[7] = target: Cytochrome P450 2C19 (Homo sapiens, UniProt P33261); assay: Cytochrome panel assay with activity outcomes. Panel member name: p450-cyp2c19 Compounds with AC50 equal or less than 10 uM are considered active; assay type: functional; conditions: read-out: AC50
[8] = target: DNA dC->dU-editing enzyme APOBEC-3G (Homo sapiens, UniProt Q9HC16); assay: Dose Response confirmation of small molecule APOBEC3G DNA Deaminase Inhibitors via a fluorescence-based single-stranded DNA deaminase assay. [Related pubchem assays (depositor defined):AID493012, AID493028]; assay type: functional
Chain of DNA dC->dU-editing enzyme APOBEC-3G (Q9HC16 whole entry): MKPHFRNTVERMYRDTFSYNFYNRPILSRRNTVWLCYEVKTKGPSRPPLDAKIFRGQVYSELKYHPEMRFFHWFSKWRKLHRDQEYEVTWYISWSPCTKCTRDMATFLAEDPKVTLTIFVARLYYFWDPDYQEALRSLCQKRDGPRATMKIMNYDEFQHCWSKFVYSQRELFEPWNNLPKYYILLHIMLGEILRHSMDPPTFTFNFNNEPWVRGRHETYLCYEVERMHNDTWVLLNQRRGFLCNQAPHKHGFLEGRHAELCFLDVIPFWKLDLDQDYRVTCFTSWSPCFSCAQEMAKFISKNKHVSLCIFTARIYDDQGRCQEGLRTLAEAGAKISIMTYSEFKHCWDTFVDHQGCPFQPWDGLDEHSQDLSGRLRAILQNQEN

Chain of Cytochrome P450 2C9 (P11712 whole entry): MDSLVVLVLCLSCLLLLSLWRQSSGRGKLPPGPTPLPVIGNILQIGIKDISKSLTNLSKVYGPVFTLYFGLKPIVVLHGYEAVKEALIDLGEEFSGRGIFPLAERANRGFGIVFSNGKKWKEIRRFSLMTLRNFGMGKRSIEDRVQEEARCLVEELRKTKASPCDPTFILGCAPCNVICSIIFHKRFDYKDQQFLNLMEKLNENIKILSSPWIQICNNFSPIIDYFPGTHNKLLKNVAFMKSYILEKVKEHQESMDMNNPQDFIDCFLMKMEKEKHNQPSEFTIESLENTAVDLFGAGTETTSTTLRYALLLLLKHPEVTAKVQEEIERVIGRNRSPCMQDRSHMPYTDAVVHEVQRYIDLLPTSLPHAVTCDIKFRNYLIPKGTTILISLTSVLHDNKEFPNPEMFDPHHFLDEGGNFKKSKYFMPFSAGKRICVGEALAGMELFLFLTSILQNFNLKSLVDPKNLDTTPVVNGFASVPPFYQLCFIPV
Chain of Cytochrome P450 2C19 (P33261 whole entry): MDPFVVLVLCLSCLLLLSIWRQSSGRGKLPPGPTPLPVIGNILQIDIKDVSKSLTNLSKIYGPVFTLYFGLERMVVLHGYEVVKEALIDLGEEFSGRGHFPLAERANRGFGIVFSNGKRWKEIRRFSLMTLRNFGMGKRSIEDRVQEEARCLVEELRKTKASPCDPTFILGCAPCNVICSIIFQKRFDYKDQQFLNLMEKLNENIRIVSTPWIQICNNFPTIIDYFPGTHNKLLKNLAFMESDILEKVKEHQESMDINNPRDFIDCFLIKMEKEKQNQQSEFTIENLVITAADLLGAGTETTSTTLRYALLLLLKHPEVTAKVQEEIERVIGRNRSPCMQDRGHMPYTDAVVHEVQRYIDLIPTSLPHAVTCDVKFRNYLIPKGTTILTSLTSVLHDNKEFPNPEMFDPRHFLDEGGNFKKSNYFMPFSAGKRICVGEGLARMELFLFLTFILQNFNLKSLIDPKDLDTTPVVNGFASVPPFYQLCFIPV
Chain of Cytochrome P450 2D6 (P10635 whole entry): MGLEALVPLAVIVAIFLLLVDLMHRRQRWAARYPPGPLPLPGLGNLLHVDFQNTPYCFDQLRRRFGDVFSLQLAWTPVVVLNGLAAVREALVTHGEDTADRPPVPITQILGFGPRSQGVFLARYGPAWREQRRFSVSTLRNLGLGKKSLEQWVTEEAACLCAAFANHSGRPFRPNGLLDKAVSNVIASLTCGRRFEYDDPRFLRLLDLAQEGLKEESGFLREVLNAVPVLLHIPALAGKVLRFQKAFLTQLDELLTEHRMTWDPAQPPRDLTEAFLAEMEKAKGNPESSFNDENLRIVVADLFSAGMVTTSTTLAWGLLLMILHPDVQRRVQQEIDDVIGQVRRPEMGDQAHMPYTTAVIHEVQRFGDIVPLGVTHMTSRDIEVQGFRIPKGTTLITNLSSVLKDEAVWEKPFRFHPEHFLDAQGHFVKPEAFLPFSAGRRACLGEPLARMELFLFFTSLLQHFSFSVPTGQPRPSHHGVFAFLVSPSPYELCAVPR
Chain of Cytochrome P450 3A4 (P08684 whole entry): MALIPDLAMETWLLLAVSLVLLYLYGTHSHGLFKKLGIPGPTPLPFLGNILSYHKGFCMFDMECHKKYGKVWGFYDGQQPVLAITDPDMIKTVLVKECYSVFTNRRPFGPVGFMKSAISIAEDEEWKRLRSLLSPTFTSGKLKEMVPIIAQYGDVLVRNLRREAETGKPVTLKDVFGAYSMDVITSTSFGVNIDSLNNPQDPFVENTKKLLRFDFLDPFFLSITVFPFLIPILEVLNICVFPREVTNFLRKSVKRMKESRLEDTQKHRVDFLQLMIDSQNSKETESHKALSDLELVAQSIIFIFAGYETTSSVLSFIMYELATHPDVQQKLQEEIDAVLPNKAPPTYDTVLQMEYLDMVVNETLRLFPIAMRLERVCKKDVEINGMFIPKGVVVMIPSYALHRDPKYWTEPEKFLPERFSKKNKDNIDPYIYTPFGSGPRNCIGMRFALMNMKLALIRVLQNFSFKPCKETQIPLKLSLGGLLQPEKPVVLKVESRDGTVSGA

| Compound | EC50 [1] | AC50 [3] | other results |
| --- | --- | --- | --- |
| OCC1(CCCc2ccccc2)CCN(Cc2cc(F)ccc2F)CC1 | 4.22 µM (active) | – | – |
| COc1ccc(NC(=O)CCSc2cc(C)c3ccccc3n2)cc1 | – | inconclusive | AC50 [2]: 31.6 µM (inconclusive) |
| COc1ccc(NC(=O)C(=O)NNC(=O)c2cccs2)c(OC)c1 | – | inconclusive | AC50 [4]: 17.8 µM (inconclusive); EC50 [5]: > 53 µM (inactive); IC50 [6]: > 47.1 µM (inactive); AC50 [7]: 39.8 µM (inconclusive) |
| CNc1nc(-c2cccnc2)nc2ccccc12 | – | inconclusive | AC50 [2]: 39.8 µM (inconclusive); AC50 [7]: 39.8 µM (inconclusive) |
| C[C@H](Br)C(=O)c1ccc2cc(Br)c3ccccc3c2c1 | – | inconclusive | – |
| CCCCn1c(NCCO)nc2ccccc21 | 1.68 µM (active) | – | – |
| COc1ccc2[nH]c(NCc3ccccc3)nc2c1 | 1.68 µM (active) | – | – |
| Sc1nc2ccccc2n1Cc1ccccc1 | – | – | IC50 [8]: 37.2 µM (active) |
| CN(C)/C=N/c1ncc(C(=O)c2ccc3ccccc3c2)s1 | – | inconclusive | – |
